This note sets out measurements from ChEMBL document CHEMBL4265875, “A comprehensive review on Aurora kinase: Small molecule inhibitors and clinical trial studies” (Eur J Med Chem, 2017).

Series [1] can be described thus: Inhibition of CYP450 (unknown origin). Format: ADME, Homo sapiens.
Series [2] deals with A2780. Kind of series: Growth inhibition of human A2780 cells incubated for 72 hrs by MTT assay. Type of series: functional. The following applies: A2780, 72 h. For orientation: Tetrazolium assays rely on reduction of a dye to a coloured formazan, in cell work by metabolically active cells.
Series [3] has as its system SW-620. Kind of series: Growth inhibition of human SW620 cells incubated for 72 hrs by MTT assay. Format: functional. Particulars: SW-620, 72 h.
A short description of series [4]: Growth inhibition of in human MIP101 cells incubated for 72 hrs. Type of series: functional, cell-based.
Series [5] in a line: Growth inhibition of in human BON1 cells incubated for 72 hrs. Type of series: functional, cell-based.
Series [6] is described as follows: Growth inhibition of in human QGP1 cells incubated for 72 hrs. Type of series: functional, cell-based. The following applies: QGP-1, 72 h.
Series [7] concerns the target T1, Aurora kinase A (Homo sapiens, UniProt O14965). Kind of series: Inhibition of Aurora A kinase (unknown origin).
Series [8] concerns the target T1, Aurora kinase A. Kind of series: Inhibition of recombinant aurora 2 (unknown origin) expressed in Sf21 insect cells incubated for 60 mins using [biotin LRRWSLGLRRWSLGLRRWSLGLRRWSLG substrate and [gamma33P]ATP by beta plate counting method.
The target of series [9] is Aurora kinase B (Homo sapiens, UniProt Q96GD4). Kind of series: Inhibition of recombinant aurora B (unknown origin).
Chain of Aurora kinase B (Q96GD4 whole entry): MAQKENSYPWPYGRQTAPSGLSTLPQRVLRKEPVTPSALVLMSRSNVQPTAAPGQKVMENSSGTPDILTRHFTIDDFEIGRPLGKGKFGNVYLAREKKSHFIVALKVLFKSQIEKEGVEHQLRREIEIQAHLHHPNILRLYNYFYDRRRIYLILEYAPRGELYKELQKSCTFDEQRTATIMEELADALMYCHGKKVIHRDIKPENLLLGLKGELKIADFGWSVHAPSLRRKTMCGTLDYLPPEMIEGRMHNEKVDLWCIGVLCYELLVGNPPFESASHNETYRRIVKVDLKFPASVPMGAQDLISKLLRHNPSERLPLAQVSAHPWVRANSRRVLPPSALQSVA
Series [10] deals with KCL-22. Kind of series: Induction of apoptosis in human KCL22 cells by Annexin V staining based assay. Format: functional, cell-based.
Series [11] concerns HT-29. Kind of series: Growth inhibition of human HT-29 cells by XTT assay. Type of series: functional, cell-based.
Series [12] has as its system HeLa. Kind of series: Growth inhibition of human HeLa cells by XTT assay. Format: functional, cell-based.
Series [13] concerns HCT-116. Kind of series: Growth inhibition of human HCT116 cells by XTT assay. Format: functional, cell-based.
The target in series [14] is Aurora kinase B/Inner centromere protein (Homo sapiens) (UniProt Q96GD4+Q9NQS7).
Description: Inhibition of human Aurora B/INCENP assessed as dissociation half life pre-incubated for 30 mins before 5-FAM-PKAtide substrate addition and measured after 120 mins
Series [15] has as its system HCT-116. Kind of series: Antitumor activity against human HCT116 cells xenografted in nude mouse assessed as reduction in tumor size at 2 mg/kg/hr. Format: functional, organism-based. On the set-up: scale not given: the % may be the effect or the level left. For orientation: A xenograft is tissue or cells of one species grown in another, often human tumour cells in immunodeficient mice.

In series [16] the test system is HL-60. Kind of series: Antitumor activity against human HL60 cells xenografted in nude mouse assessed as reduction in tumor size at 75 mg/kg, ip bid for 13 days. Format: functional, organism-based. Further details: scale not given: the % may be the effect or the level left.
A short description of series [17]: Suppression of cell mitosis in human multiple myeloma cells. Type of series: functional.
The subject of series [18] is MM1.S. Kind of series: Antitumor activity against human MM1S cells xenografted in gamma-irradiated CB17 SCID mouse assessed as inhibition of tumor growth at 15 mg/kg, po dosed daily for 21 days. Format: functional. Particulars: light or radiation study, 504 h, read-out: TGI.
For series [19], the system named is MM1.S. Kind of series: Antitumor activity against human MM1S cells xenografted in gamma-irradiated CB17 SCID mouse assessed as inhibition of tumor growth at 30 mg/kg, po dosed daily for 21 days. Type of series: functional. The following applies: light or radiation study, 504 h, read-out: TGI.
Series [20] deals with Aurora kinase C (Homo sapiens, UniProt Q9UQB9). Kind of series: Inhibition of Aurora C kinase (unknown origin).
Chain of Aurora kinase C (Q9UQB9 whole entry): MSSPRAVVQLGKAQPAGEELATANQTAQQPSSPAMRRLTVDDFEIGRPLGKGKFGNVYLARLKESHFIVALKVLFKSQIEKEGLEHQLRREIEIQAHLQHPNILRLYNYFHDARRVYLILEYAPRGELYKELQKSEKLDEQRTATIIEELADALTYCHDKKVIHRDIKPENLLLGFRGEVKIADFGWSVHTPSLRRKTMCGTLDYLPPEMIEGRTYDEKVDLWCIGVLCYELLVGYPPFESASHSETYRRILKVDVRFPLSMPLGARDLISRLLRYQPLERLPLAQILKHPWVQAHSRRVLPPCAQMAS
A short description of series [21]: Half life in fasted mouse at 5 mg/kg administered as single dose by orogastric gavage by LC-MS/MS analysis. Type of series: ADME, organism-based. Particulars: in vivo, po.
Series [22] is described as follows: Oral bioavailability in fasted mouse at 5 mg/kg administered as single dose by orogastric gavage by LC-MS/MS analysis. Type of series: ADME, organism-based. Particulars: in vivo.
Series [23] in a line: Oral bioavailability in fasted dog at 2 mg/kg administered as single dose by orogastric gavage by LC-MS/MS analysis. Particulars: in vivo. Type of series: ADME, organism-based, Canis lupus familiaris.
The nature of series [24]: Half life in fasted rat at 5 mg/kg administered as single dose by orogastric gavage by LC-MS/MS analysis. Particulars: in vivo, po. Format: ADME, organism-based.
Series [25] is described as follows: Oral bioavailability in fasted rat at 5 mg/kg administered as single dose by orogastric gavage by LC-MS/MS analysis. Format: ADME, organism-based. Particulars: in vivo.
The nature of series [26]: Half life in fasted dog at 2 mg/kg administered as single dose by orogastric gavage by LC-MS/MS analysis. Particulars: in vivo, po. Format: ADME, organism-based, Canis lupus familiaris.
Series [27] is described as follows: Oral bioavailability in fasted monkey at 2 mg/kg administered as single dose by orogastric gavage by LC-MS/MS analysis. Type of series: ADME, organism-based, Macaca mulatta. The following applies: rhesus monkey, in vivo.
Series [28] is described as follows: Half life in fasted monkey at 2 mg/kg administered as single dose by orogastric gavage by LC-MS/MS analysis. Type of series: ADME, organism-based, Macaca mulatta. The following applies: rhesus monkey, in vivo, po.

A value given as a limit tells only on which side of the number the result lay.

T1 sequence (O14965 whole entry): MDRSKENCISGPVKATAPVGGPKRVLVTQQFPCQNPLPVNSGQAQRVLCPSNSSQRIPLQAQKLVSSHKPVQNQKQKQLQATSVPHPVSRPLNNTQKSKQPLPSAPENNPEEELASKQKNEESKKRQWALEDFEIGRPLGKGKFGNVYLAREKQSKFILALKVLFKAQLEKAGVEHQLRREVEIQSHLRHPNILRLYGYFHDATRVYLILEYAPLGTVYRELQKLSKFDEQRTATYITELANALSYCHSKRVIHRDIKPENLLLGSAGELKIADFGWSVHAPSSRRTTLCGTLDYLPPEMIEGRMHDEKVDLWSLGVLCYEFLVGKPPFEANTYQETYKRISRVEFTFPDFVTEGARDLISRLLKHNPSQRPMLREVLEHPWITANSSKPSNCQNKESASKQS

In series [1], `Cc1cc(CN2CCN(c3c(Br)cnc4nc(-c5ccc(N6CCN(C)CC6)cc5)[nH]c34)CC2)no1` registered an IC50 of over 10000 nM. Also, the GI50 was found to be 300 nM in series [2] and 140 nM in series [3].
Turning to `COc1cc2c(Nc3ccc(NC(=O)c4ccccc4)cc3)ncnc2cc1OCCCN1CCOCC1`, the half-maximal inhibitory concentration (IC50) was found to be 3000 nM in series [4], 3000 nM in [5] and 900 nM in [6].
In [7], `O=C1c2[nH]c3cc(-c4ccco4)nn3c(=O)c2CN1Cc1ccccc1` yielded an IC50 of 560 nM.
For `COc1cc2c(Nc3ccc(C(=O)Nc4ccccc4)cc3)ncnc2cc1O`, the IC50 in series [8] was 60 nM; in series [9], 41 nM.
On to `CCN1CCN(C(=O)Cc2ccc(Nc3ncc(F)c(Nc4ccc(C(=O)Nc5ccccc5Cl)cc4)n3)cc2)CC1`, for which the half-inhibitory concentration (IC50) in series [10] is 5000 nM; in series [11] it was 5600 nM; in series [12], 416 nM; in series [13], 190 to 378 nM.
In series [14], `CCn1cc(-c2ccnc3[nH]c(-c4cccc(CN(C)C)c4)cc23)c(-c2ccc(NC(=O)N(C)C)cc2)n1` had a T1/2 of 8 h.
`Cc1cc(Nc2cc(N3CCN(C)CC3)nc(Sc3ccc(NC(=O)C4CC4)cc3)n2)n[nH]1`: the Activity was 56% in series [15] and 98% in [16].
As to `COc1cc(Nc2ncc3c(n2)-c2ccc(Cl)cc2C(c2c(F)cccc2OC)=NC3)ccc1C(=O)O` [ALISERTIB], the IC50 in series [17] fell in the range of 3 to 1710 nM. In series [18], the inhibition in vivo at 15 mg/kg was determined as 42%. The inhibition in vivo at 30 mg/kg in series [19] stood at 80%.
Consider `Cc1csc(-c2nnc(Nc3ccc(Oc4ncccc4-c4ccnc(N)n4)cc3)c3ccccc23)c1` [AMG-900], for which the results for the IC50 in series [20] and in series [9] were 1 nM and 4 nM, respectively. The half-life in series [21], in [24], in series [26] and in [28] was 0.6 to 2.4 h each time. Further, the bioavailability in series [22], in series [23], in series [25] and in series [27] was 31 to 107% throughout.

What is called IC50 is the concentration needed to halve the response being measured. The GI50 is the concentration giving 50% growth inhibition. The term half-life denotes how long it takes for the measured level to halve.
